{"source": "ChEMBL document CHEMBL5360625", "about": "“Design, Synthesis, and Antitumor Activity Evaluation of 2-Arylmethoxy-4-(2,2'-dihalogen-substituted biphenyl-3-ylmethoxy) Benzylamine Derivatives as Potent PD-1/PD-L1 Inhibitors” (J Med Chem, 2023)", "key": {"[1]": {"assay": "Toxicity in PD-1/PD-L1 humanized C57/BL6 mouse implanted with mouse MC38 cells assessed as morphological change in liver at 50 mg/kg, IG qd administered on day 5 measured after 2 weeks by hematoxylin-eosin staining based inverted fluorescent microscopic analysis", "type": "organism-based, MC-38", "conditions": "in vivo, po, 336 h"}, "MC-38 [2]": {"test_system": "MC-38", "assay": "Immunomodulatory activity in mouse MC38 cells implanted in PD-1/PD-L1 humanized C57/BL6 mouse assessed as increase in CXCL9 mRNA expression level in tumor at 50 mg/kg, IG qd administered on day 5 measured after 2 weeks by RT-PCR analysis", "type": "functional, organism-based"}, "[3]": {"assay": "Hepatotoxicity in PD-1/PD-L1 humanized C57/BL6 mouse implanted with mouse MC38 cells assessed as effect on total protein level in serum at 50 mg/kg, IG qd administered on day 5 measured after 2 weeks", "type": "toxicity, organism-based, MC-38", "conditions": "in vivo, po, 336 h"}, "[4]": {"assay": "Tmax in Sprague-Dawley rat at 10 mg/kg, ip measured upto 48 hrs by LC-MS/MS analysis", "type": "ADME, organism-based", "conditions": "in vivo"}, "[5]": {"assay": "Hepatotoxicity in PD-1/PD-L1 humanized C57/BL6 mouse implanted with mouse MC38 cells assessed as effect on ALT level in serum at 50 mg/kg, IG qd administered on day 5 measured after 2 weeks", "type": "toxicity, organism-based, MC-38", "conditions": "in vivo, po, 336 h"}, "[6]": {"assay": "AUC (0 to infinity) in Sprague-Dawley rat at 40 mg/kg, IG measured upto 48 hrs by LC-MS/MS analysis", "type": "ADME, organism-based", "design": "time < 48 hrs, dose 40 mg/kg, route ig", "conditions": "Sprague-Dawley, in vivo, po"}, "[7]": {"assay": "Toxicity in PD-1/PD-L1 humanized C57/BL6 mouse implanted with mouse MC38 cells assessed as change in body weight at 50 mg/kg, IG qd administered on day 5 measured after 2 weeks", "type": "organism-based, MC-38", "conditions": "in vivo, po, 336 h"}, "[8]": {"assay": "Nephrotoxicity in PD-1/PD-L1 humanized C57/BL6 mouse implanted with mouse MC38 cells assessed as effect on urea level in serum at 50 mg/kg, IG qd administered on day 5 measured after 2 weeks", "type": "toxicity, organism-based, MC-38", "conditions": "in vivo, po, 336 h"}, "MC-38 [9]": {"test_system": "MC-38", "assay": "Antitumor activity against mouse MC38 cells implanted in PD-1/PD-L1 humanized C57/BL6 mouse assessed as increase in CD8 positive CD4 positive ratio in tumor at 50 mg/kg, IG qd administered on day 5 measured after 2 weeks by flow cytometry analysis", "type": "functional, organism-based"}, "[10]": {"assay": "Hepatotoxicity in PD-1/PD-L1 humanized C57/BL6 mouse implanted with mouse MC38 cells assessed as effect on AST level in serum at 50 mg/kg, IG qd administered on day 5 measured after 2 weeks", "type": "toxicity, organism-based, MC-38", "conditions": "in vivo, po, 336 h"}, "MC-38 [11]": {"test_system": "MC-38", "assay": "Antitumor activity against mouse MC38 cells implanted in PD-1/PD-L1 humanized C57/BL6 mouse assessed as increase in CD3 positive CD8 positive T cells proportion in tumor at 50 mg/kg, IG qd administered on day 5 measured after 2 weeks by flow cytometry analysis (reference value: 51.8%)", "type": "functional"}, "[12]": {"assay": "Clearance in Sprague-Dawley rat at 10 mg/kg, ip measured upto 48 hrs by LC-MS/MS analysis", "type": "ADME, organism-based", "conditions": "in vivo"}, "[13]": {"assay": "Half life in Sprague-Dawley rat at 40 mg/kg, IG measured upto 48 hrs by LC-MS/MS analysis", "type": "ADME, organism-based", "conditions": "Sprague-Dawley, in vivo, po"}, "[14]": {"assay": "AUC (0 to infinity) in Sprague-Dawley rat at 8 mg/kg, iv measured upto 48 hrs by LC-MS/MS analysis", "type": "ADME, organism-based", "design": "time < 48 hrs, dose 8 mg/kg, route iv", "conditions": "in vivo"}, "[15]": {"assay": "Toxicity in PD-1/PD-L1 humanized C57/BL6 mouse implanted with mouse MC38 cells assessed as morphological change in lung at 50 mg/kg, IG qd administered on day 5 measured after 2 weeks by hematoxylin-eosin staining based inverted fluorescent microscopic analysis", "type": "organism-based, MC-38", "conditions": "in vivo, po, 336 h"}, "[16]": {"assay": "Half life in Sprague-Dawley rat at 8 mg/kg, iv measured upto 48 hrs by LC-MS/MS analysis", "type": "ADME, organism-based", "conditions": "Sprague-Dawley, in vivo"}, "[17]": {"assay": "Toxicity in PD-1/PD-L1 humanized C57/BL6 mouse implanted with mouse MC38 cells assessed as mortality at 50 mg/kg, IG qd administered on day 5 measured after 2 weeks", "type": "organism-based, MC-38", "conditions": "in vivo, po, 336 h"}}, "note": "The source made the active and inactive calls. No cut-off for these calls is given here.", "data": [{"molecule": "N#Cc1cncc(COc2cc(OCc3cccc(-c4ccccc4F)c3Cl)ccc2CNCCO)c1", "values": [{"measurement": "Activity", "setting": "[1]", "value": "Non-Toxic"}, {"measurement": "Activity", "setting": "MC-38 [2]", "value": "Active"}, {"measurement": "Activity", "setting": "[3]", "value": "Non-Toxic"}, {"measurement": "Tmax", "setting": "[4]", "value": 52.8, "unit": "min"}, {"measurement": "Activity", "setting": "[5]", "value": "Non-Toxic"}, {"measurement": "AUC(0-inf)", "setting": "[6]", "value": 65500, "unit": "ng·h/mL"}, {"measurement": "Activity", "setting": "[7]", "value": "Non-Toxic"}, {"measurement": "Activity", "setting": "[8]", "value": "Non-Toxic"}, {"measurement": "Activity", "setting": "MC-38 [9]", "value": "Active"}, {"measurement": "Activity", "setting": "[10]", "value": "Non-Toxic"}, {"measurement": "Activity", "setting": "MC-38 [11]", "value": 67.4, "unit": "%"}, {"measurement": "CL/F", "setting": "[12]", "value": 20.2, "unit": "mL/min/kg"}, {"measurement": "half-life", "setting": "[13]", "value": 103, "unit": "min"}, {"measurement": "AUC(0-inf)", "setting": "[14]", "value": 13400, "unit": "ng·h/mL"}, {"measurement": "Activity", "setting": "[15]", "value": "Non-Toxic"}, {"measurement": "half-life", "setting": "[16]", "value": 59.4, "unit": "min"}, {"measurement": "Activity", "setting": "[17]", "value": "Non-Toxic"}]}]}
